The values below come from patent US10202345B2, “Substituted azaspiro(4.5)decane derivatives” (priority 2014, dated 2019).

Tested on in one data set: not given
Assay: not given
Details: not given
For orientation: melting point means the temperature, or range, at which the solid turns liquid. In turn, `CN1CCC2(CCC(Cc3ccccc3)(N(C)C)CC2)C1` (single isomer, unassigned) [Example 6, (8-Benzyl-3-methyl-3-azaspiro[4.5]decan-8-yl)-dimethylamine] showed a melting point of 57 to 58 °C.
`CN(C)C1(Cc2ccccc2)CCC2(CCNC2=O)CC1` (single isomer, unassigned) [Example 2, 8-Benzyl-8-(dimethyl-amino)-3-azaspiro[4.5]decan-4-one] yielded a melting point of 202 to 204 °C.

In another data set the target is human μ opiate receptor (Homo sapiens, UniProt P35372). Briefly: μ opiate receptor binding assay with [3H]-naloxone (WGA-SPA beads). To be noted: mean.
Chain of human μ opiate receptor (P35372 whole entry): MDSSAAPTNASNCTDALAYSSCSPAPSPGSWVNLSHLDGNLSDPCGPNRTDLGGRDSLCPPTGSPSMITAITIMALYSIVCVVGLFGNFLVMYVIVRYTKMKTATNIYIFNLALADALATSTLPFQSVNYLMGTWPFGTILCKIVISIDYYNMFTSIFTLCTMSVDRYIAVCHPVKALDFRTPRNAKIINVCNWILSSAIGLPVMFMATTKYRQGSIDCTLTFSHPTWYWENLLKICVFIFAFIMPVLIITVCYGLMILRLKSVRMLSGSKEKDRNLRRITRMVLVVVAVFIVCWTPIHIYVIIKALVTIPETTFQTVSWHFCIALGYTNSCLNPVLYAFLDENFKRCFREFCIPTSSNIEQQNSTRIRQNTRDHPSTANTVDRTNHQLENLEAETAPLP
In general, Ki refers to a dissociation constant, usually derived from enzyme kinetics or from competition with a known ligand. Lower therefore signals tighter binding. Take `CN1CC2(CCC(C3CCCC3)(N(C)C)CC2)CC1=O` (centres unmarked) [Example 282]: the affinity corresponds to a Ki of 0.295 µM.
For the compound `CN1CCC2(CCC(Cc3ccccc3)(N(C)C)CC2)C1` (single isomer, unassigned) [Example 6, (8-Benzyl-3-methyl-3-azaspiro[4.5]decan-8-yl)-dimethylamine], the Ki is 1.1 µM.
On to `CN1CCC2(CCC(Cc3ccccc3)(N(C)C)CC2)C1` (single isomer, unassigned) [Example 5, (8-Benzyl-3-methyl-3-azaspiro[4.5]decan-8-yl)-dimethylamine], for which the Ki was determined as 1.45 µM.
The compound `CN1CCC2(CCC(Cc3ccccc3)(N(C)C)CC2)C1=O` (centres unmarked) [Example 118] registered a Ki of 5.5 µM.
In turn, `CN(C)C1(Cc2ccccc2)CCC2(CCNC2=O)CC1` (single isomer, unassigned) [Example 1, 8-Benzyl-8-(dimethyl-amino)-3-azaspiro[4.5]decan-4-one] came in with a Ki of 1.06 µM.
The compound `CN(C)C1(C2CCCC2)CCC2(CCN(C(=O)C3COC3)C2)CC1` (centres unmarked) [Example 291] gave a Ki of 0.175 µM.
Consider `CN(C)C1(Cc2ccccc2)CCC2(CCNC2)CC1` (single isomer, unassigned) [Example 3, (8-Benzyl-3-azaspiro[4.5]decan-8-yl)-dimethylamine], for which affinity was put at a Ki of 1.83 µM.
The compound `CN(C)C1(CC2CCCCC2)CCC2(CCNC2=O)CC1` (centres unmarked) [Example 92, 8-(Cyclohexylmethyl)-8-dimethylamino-3-azaspiro[4.5]decan-4-one] displayed a Ki of 3590 µM.
In turn, `CN1CCC2(CCC(Cc3ccccc3)(N(C)C)CC2)C1=O` (centres unmarked) [Example 119] registered a Ki of 3.57 µM.
In the case of `CN(C)C1(Cc2ccccc2)CCC2(CCNC2)CC1` (single isomer, unassigned) [Example 4, (8-Benzyl-3-azaspiro[4.5]decan-8-yl)-dimethylamine], the Ki stood at 0.92 µM.
On the same count and under the same terms, in the case of `CCCCN1CCC2(CCC(C(=O)c3ccccc3)(N(C)C)CC2)C1` (single isomer, unassigned) [Example 107, [3-Butyl-8-(dimethylamino)-3-azaspiro[4.5]decan-8-yl]-phenylmethanone] it was 0.95 µM.
`CN(C)C1(Cc2ccccc2)CCC2(CCNC2=O)CC1` (single isomer, unassigned) [Example 2, 8-Benzyl-8-(dimethyl-amino)-3-azaspiro[4.5]decan-4-one] returned an inhibition constant Ki of 4.79 µM.
